# Read-outs that look alike come from different tables or passages of the source.
# Experiments:
# Cyclooxygenase-1 = target: T1, Cyclooxygenase-1 (Homo sapiens, UniProt P23219); test: Inhibition of cyclooxygenase-1: prostaglandin E2 formed from human platelets after calcium ionophore, ELISA; assay type: cell-based; conditions: PGE2, read-out: IC50 COX-1
# T1 construct: endogenous in cells; host or cells: human platelets isolated over a Percoll gradient
# Protocol: Test System for Determination of the Inhibition of Cyclooxygenase-1
# In this test system, the amount of prostaglandin E2 formed from human platelets after addition of calcium ionophore is determined by means of ELISA. In this process, the platelets are obtained after centrifugation over a discontinuous Percoll® gradient. The enzyme reaction and the determination of the metabolites formed is carried out in principle as in the determination of 5-lipoxygenase inhibition. Differences exist with respect to the incubation time. Furthermore, the addition of a thromboxane synthase inhibitor is necessary (see Arch. Pharm. Med. Chem. 330, 307-312 (1997)).
# 5-lipoxygenase = target: T2, 5-lipoxygenase (Homo sapiens, UniProt P09917); test: Inhibition of 5-lipoxygenase: LTB4 formation in human granulocytes stimulated with calcium ionophore A 23187, ELISA; assay type: cell-based; conditions: read-out: IC50 5-LO
# T2 construct: Human granulocytes are used as a source of 5-lipoxygenase; endogenous in cells; host or cells: human granulocytes isolated from heparinised blood
# T2 sequence (P09917 1-674): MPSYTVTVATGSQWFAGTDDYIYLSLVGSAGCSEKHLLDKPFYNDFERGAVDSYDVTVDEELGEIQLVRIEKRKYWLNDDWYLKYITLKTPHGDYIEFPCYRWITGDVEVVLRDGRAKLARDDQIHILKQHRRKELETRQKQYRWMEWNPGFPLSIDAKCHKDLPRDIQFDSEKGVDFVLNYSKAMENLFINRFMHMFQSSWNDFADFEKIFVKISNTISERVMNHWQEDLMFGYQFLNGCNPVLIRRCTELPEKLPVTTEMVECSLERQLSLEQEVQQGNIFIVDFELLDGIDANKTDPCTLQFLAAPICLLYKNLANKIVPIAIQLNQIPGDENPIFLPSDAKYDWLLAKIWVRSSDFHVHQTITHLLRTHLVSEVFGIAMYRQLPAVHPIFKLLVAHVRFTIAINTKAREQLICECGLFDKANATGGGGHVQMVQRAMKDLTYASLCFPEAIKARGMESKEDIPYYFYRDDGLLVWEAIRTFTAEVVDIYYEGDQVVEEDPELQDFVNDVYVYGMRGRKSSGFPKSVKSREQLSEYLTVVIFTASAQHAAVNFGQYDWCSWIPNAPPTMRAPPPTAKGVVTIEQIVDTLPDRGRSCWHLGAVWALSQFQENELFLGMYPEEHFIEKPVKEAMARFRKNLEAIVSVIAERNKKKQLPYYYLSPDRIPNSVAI
# Protocol: Test System for Determination of the Inhibition of 5-Lipoxygenase
# Human granulocytes are used as a source of 5-lipoxygenase. By means of stimulation with calcium ionophore A 23187, LTB4 (leukotriene B4) is formed from endogenous arachidonic acid. The granulocytes are isolated and the enzyme reaction is carried out according to known processes (see Arch. Pharm. Med. Chem. 330, 307-312 (1997)).
# The blood, protected from clotting with heparin, is centrifuged over a discontinuous Percoll® gradient and the granulocyte layer is removed by pipette. After lysis of the erythrocytes, the granulocytes are washed a number of times and then adjusted to a specific cell count. The enzyme reaction is then started in the presence or absence of the test substance after addition of Ca^2+ using calcium ionophore […]. The synthesis of the leukotrienes is stopped after 1.5 minutes. The samples are centrifuged off and the supernatant is diluted. LTB4 is determined quantitatively by means of ELISA.
# [1] = Determination of the partition coefficient n-octanol/water (OECD Guideline No. 117); assay type: physicochemical
# Protocol: Determination of the Partition Coefficient
# The partition coefficient P of the compounds was determined in the system n-octanol/water according to the OECD Guidline for Testing Chemicals, No. 117.
# [2] = target: T3, COX2 (from sheep placenta) (Ovis aries, UniProt P79208); test: Inhibition of cyclooxygenase-2: COX2 stimulated with arachidonic acid, PGE2 by ELISA; assay type: biochemical; conditions: arachidonic acid 5 μM, read-out: IC50 COX-2
# T3 construct: COX2 (from sheep placenta) is preincubated with test substance at 4° C. for 10 min; from tissue; host or cells: sheep placenta
# T3 sequence (P79208 17-603): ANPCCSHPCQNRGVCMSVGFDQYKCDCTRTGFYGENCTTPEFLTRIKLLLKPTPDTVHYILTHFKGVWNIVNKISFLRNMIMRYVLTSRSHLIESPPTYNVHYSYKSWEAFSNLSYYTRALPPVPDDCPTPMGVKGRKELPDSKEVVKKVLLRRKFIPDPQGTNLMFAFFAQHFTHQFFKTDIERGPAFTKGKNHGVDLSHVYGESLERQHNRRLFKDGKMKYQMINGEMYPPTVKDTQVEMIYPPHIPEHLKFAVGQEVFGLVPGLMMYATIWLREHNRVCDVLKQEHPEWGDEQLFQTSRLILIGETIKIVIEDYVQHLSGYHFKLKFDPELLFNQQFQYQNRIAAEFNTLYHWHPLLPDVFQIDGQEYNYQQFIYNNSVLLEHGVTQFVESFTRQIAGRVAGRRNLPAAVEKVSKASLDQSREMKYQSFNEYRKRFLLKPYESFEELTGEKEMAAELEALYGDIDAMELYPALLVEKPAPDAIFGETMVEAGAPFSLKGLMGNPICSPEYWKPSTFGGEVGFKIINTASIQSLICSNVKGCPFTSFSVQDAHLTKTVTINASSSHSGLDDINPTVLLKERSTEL
# Protocol: Test System for Determination of the Inhibition of Cyclooxygenase-2
# COX2 (from sheep placenta) is preincubated with test substance at 4° C. for 10 min, then stimulated with arachidonic acid (5 μM) at 25° C. for 10 min. […] The determination is carried out at 3 dilutions (10^−7, 10^−6, 10^−5 M), and the PGE2 concentrations are quantified by means of ELISA (see Mitchell, J. A. et al. Proc. Nat. Acad. Sci 90: 11693-11697 (1993)).
# T1 sequence (P23219 24-599): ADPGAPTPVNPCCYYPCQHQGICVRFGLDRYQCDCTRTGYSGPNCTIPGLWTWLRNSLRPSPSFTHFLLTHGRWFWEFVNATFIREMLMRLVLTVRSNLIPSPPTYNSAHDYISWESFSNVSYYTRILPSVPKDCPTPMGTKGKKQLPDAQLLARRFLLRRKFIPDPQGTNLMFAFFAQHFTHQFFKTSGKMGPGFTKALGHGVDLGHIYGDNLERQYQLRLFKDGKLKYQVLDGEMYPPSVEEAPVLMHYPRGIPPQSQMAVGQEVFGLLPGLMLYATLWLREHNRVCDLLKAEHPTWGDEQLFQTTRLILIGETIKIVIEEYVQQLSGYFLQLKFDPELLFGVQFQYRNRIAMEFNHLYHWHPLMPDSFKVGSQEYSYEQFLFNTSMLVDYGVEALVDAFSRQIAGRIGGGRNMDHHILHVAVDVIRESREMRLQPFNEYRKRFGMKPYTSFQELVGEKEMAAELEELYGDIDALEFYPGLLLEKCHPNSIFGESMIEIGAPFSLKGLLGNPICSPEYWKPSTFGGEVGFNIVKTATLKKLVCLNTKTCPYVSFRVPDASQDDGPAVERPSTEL
SMILES,IC50 (Cyclooxygenase-1) [nM],"chromatographic logP ([1]; pH 2.5, read-out: Log P pH 2.5)","chromatographic logP ([1]; pH 7.5, read-out: Log P pH 7.5)",melting point [°C],IC50 [2] [nM],IC50 (5-lipoxygenase) [nM]
"Cc1c(-c2ccc(Cl)cc2)c(-c2ccccc2)c2n1CC(C)(C)C2O (centres unmarked) [Example 15, 6-(4-Chlorophenyl)-2,3-dihydro-1-hydroxy-2,2,5-trimethyl-7-phenyl-1H-pyrrolizine]",,,,133,,
"CC1(C)Cn2c(CC(=O)O)c(-c3ccc(Cl)cc3)c(-c3ccccc3)c2C1=O [Example 18, 6-(4-Chlorophenyl)-2,3-dihydro-2,2-dimethyl-1-oxo-7-phenyl-1H-pyrrolizin-5-ylacetic Acid]",46,3.3,1.1,,2100,
"CC1(C)Cc2c(-c3ccccc3)c(-c3ccc(Cl)cc3)c(CC(=O)O)n2C1 [ML 3000, reference compound]",210,4.8,1.9,,4700,180

# More lines, main results first:
IC50 (Cyclooxygenase-1) [nM],"chromatographic logP ([1]; pH 2.5, read-out: Log P pH 2.5)","chromatographic logP ([1]; pH 7.5, read-out: Log P pH 7.5)",melting point [°C],IC50 [2] [nM],SMILES,IC50 (5-lipoxygenase) [nM]
950,5,5.1,,,"CC1(C)Cn2cc(-c3ccc(Cl)cc3)c(-c3ccccc3)c2C1=O [Example 6, 6-(4-Chlorophenyl)-2,3-dihydro-2,2-dimethyl-1-oxo-7-phenyl-1H-pyrrolizine]",230
,,,193,,"CCOC(=O)C(=O)c1c(-c2ccc(Cl)cc2)c(-c2ccccc2)c2n1CC(C)(C)C2O (centres unmarked) [Example 11, Ethyl 6-(4-Chlorophenyl)-2,3-dihydro-1-hydroxy-2,2-dimethyl-7-phenyl-1H-pyrrolizin-5-yl-2-oxoacetate]",
60,4.5,1.7,,,"COC1c2c(-c3ccccc3)c(-c3ccc(Cl)cc3)c(CC(=O)O)n2CC1(C)C (centres unmarked) [Example 14, 6-(4-Chlorophenyl)-2,3-dihydro-1-methoxy-2,2-dimethyl-7-phenyl-1H-pyrrolizin-5-ylacetic Acid]",
500,5.1,6.7,,7500,"COC1c2c(-c3ccccc3)c(-c3ccc(Cl)cc3)c(C)n2CC1(C)C (centres unmarked) [Example 16, 6-(4-Chlorophenyl)-2,3-dihydro-1-methoxy-2,2,5-trimethyl-7-phenyl-1H-pyrrolizine]",
,,,193,,"CC1(C)Cc2c(-c3ccccc3)c(-c3ccc(Cl)cc3)c(OC(=O)c3ccccc3)n2C1 [Example 26, 2-(4-Chlorophenyl)-6,6-dimethyl-1-phenyl-6,7-dihydro-5H-pyrrolizin-3-yl Benzoate]",

# From patent US6878738B1, “Anti-inflammatory oxo derivatives and hydroxy derivatives of pyrrolizines, and their pharmaceutical use” (Merckle GmbH, priority 1999, dated 2005)
